# Experiments:
# LIMK1 = target: T1, LIMK1 (Homo sapiens, UniProt P53667); test: LIMK1 activity assay (commercial, Promega); type: biochemical; conditions: in vitro; LIMKi at 100 μm, 10 μm, 1 μm, 0.1 μm; DMSO did not inhibit
# T1 construct: purchased Promega
# Description: LIMK1 activity assay. LIMK1 activity in the absence or presence of different concentrations of LIMKi (or DMSO) was determine with a commercial assay following the manufacturer's instructions (Promega).
# C57B^1/6 mice = test: PTZ-induced excitotoxic seizure model; type: in vivo, mouse; conditions: for mean seizure severity: n=9
# Protocol: (§1) FIG. 4. LIMK1 inhibition reduced susceptibility to induced seizures and mitigated neuronal network hypersynchronicity and memory deficits in a mouse model of Alzheimer's disease. (A) Excitotoxic seizures were induced by acute intraperitoneal injection of 50 mg/kg body weight pentylenetetrazole (PTZ) followed by timing and scoring (0=no seizures to 7=terminal status epilepticus) of seizure development. Mice were treated with vehicle or 10 mg/kg body weight LIMK1 inhibitor (LIMKi) intraperitoneally 30 minutes prior to seizure induction. […] Only vehicle-treated mice develop severe seizure stages over time (i.e. score=5). […] (B) Compound hippocampal electroencephalography (EEG) recordings over 4 hours in non-transgenic (wt) and APP transgenic (APP23) mice including 2 hours before (Pre) and 2 hours after (Post) LIMKi or vehicle administration. Time of intraperitoneal LIMKi and vehicle administration is indicated with an arrow. […] Frequent spikes pre and post vehicle administration in APP23 mice. In contrast, LIMKi injection mitigates spike activity in APP23 post injection. […] (E) Chronic Limkl inhibition reverts memory deficits in AD mice. APP23 mice develop memory deficits in the Morris water maze (MWM) paradigm at 3 months of age. Treatment with 10 mg/kg LIMKi i.p. (3-4 times per week) was initiated at 3 months of age and continued for =4 months before MWM testing at 7 months of age. […] For bar graphs in (C) and (E), from left to right: non-Tg +vehicle; non-Tg+LIMKi; APP23+vehicle; APP23+LIMKi.
# Seizure model. Excitotoxic seizure were induced in mice by intraperitoneal injection of 50 mg/kg body weight pentylenetetrazole followed by observation in a square area (40×40 cm). Scoring of seizures was done as previously described (Ittner et al., 2010, Cell 142, 387-397). For LIMKi-treated mice, scoring was adjusted by combining the severe seizure scores 5 to 7 into a single score of 5. For both scales, minor to moderate seizures are reflected by scores <5.
# [1] = test system: C57B^1/6 primary mouse neurons; test: Aβ toxicity in cultured primary neurons (dendritic spine loss, cell viability); type: cell-based; conditions: pre-treatment, 0.05 μM oligomeric Aβ
# Protocol: C57B^1/6 primary mouse neurons were treated with Compound 1 shown below (also referred to herein as LIMKi) together with 0.05 μM oligomeric Aβ (oAβ ) and determined loss of dendritic spines and cell viability.
# Aβ treated neurons presented with loss of spines and reduced viability. […] Next, the inventors determined the potential short-term effects of Compound 1 in vivo. […] Next, the inventors tested the effects of acute Compound 1 administration on neuronal network activity in APP23 mice. […] Furthermore, CFC 1 hour after Compound 1 administration was re-established (data not shown). […] Thus, inhibition of LIMK1 with Compound 1 conferred protection from Aβ toxicity in neurons and from excitotoxicity in vivo. Furthermore, treatment of APP23 with Compound 1 corrected network aberrations including CFC.
# APP23 mice [2] = test: Hippocampal telemetric EEG recordings (spikes, cross frequency coupling); type: in vivo, mouse; conditions: for amplitude phase in EEG recordings / modulation index of cross frequency coupling / spike frequency / hypersynchronous discharges in EEG: n=8; for spike frequency / hypersynchronous discharges in EEG: i.p., 2 hours pre vs 2 hours post administration
# Protocol: as §1
# Electroencephalography. Hippocampal EEG recordings were done with implanted telemetric electrodes (D.S.I.) as previously described (Ittner et al., 2014, Acta neuropathologica communications 2, 149). All recordings were done with mice individually housed in their home cages one week after implantation of transmitters. Compound administration was done intraperitoneally during transient restraining of mice. Vehicle for the LIMK1 inhibitor LIMKi contained hydroxypropyl methylcellulose 606 (HPMC 606) with polyvinylpyrrolidone k17 (PVP k17) and tween 80 in a proportion of 0.5%, 0.5%, 0.1%, respectively. Spike analysis was done with the Neuroscore software module (D.S.I.) as previously described (Ittner et al., 2016, Science 354, 904-908). Cross frequency coupling of theta and gamma waves was performed as previously described (Ittner et al., 2016, Science 354, 904-908).
# APP23 mice [3] = test: Morris water maze memory testing after chronic treatment; type: in vivo, mouse
# Protocol: as §1
# Memory testing. Memory of mice was assessed in the water T maze paradigm and Morris water maze following published protocols (Ittner et al., 2010, Cell 142, 387-397; Ke et al., 2015, Acta Neuropathol 130, 661-678). Chronic treatment of mice was done by 3-4 times per week intraperitoneal injection of 10 mg/kg LIMKi or vehicle (0.5% hydroxypropyl methylcellulose 606 (HPMC 606), 0.5% polyvinylpyrrolidone k17 (PVP k17) and 0.1% tween 80) starting at 3 months of age and continued until 7 months of age. All mice were acclimatized to the test rooms prior to testing.
# Encouraged by the short-term effects of Compound 1 in neurons and APP23 mice (Example 3), the inventors tested whether long-term treatment could improve memory deficits in APP23 mice. 3-month old APP23 mice were treated for four months before being subjected to memory testing in the MWM. APP23 mice present with significant memory deficits at 3 months of age, that progress with age (Ittner et al., 2016, Science 354:904-908). An intermittent treatment schedule was chosen to avoid potential inhibition of astrocyte-mediated AP clearance that could mask therapeutic effects. At 7 months of age, vehicle-treated APP23 mice presented with significant memory deficits as compared to vehicle-treated non-transgenic mice (FIG. 4E).
# [4] = 10 mg/kg i.p. 30 minutes prior to 50 mg/kg PTZ, vs vehicle
# [5] = APP23 mice, 1 hour after administration
# [6] = APP23 mice, 1 hour after administration, listed as LIMKi
# T1 sequence (P53667 whole entry): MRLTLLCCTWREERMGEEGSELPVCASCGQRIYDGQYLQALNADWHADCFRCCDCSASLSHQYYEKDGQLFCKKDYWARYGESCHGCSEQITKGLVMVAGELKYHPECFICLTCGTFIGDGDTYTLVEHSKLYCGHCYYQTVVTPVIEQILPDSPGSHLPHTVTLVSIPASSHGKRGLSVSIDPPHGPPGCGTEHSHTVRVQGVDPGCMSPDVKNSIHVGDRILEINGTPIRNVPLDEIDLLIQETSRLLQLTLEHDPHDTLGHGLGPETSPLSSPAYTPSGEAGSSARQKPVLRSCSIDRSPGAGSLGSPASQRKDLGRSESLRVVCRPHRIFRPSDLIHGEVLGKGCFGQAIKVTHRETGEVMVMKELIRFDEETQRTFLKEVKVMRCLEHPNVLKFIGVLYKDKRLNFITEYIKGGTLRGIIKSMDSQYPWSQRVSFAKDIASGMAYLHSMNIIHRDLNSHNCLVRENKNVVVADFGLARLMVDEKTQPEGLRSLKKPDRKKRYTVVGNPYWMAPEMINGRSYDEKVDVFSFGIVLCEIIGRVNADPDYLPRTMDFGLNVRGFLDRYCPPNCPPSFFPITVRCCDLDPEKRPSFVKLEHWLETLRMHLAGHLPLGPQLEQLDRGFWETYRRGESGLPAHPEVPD
structure (smiles),measurement,setting,value
Cc1c[nH]c2ncnc(N3CCN(/C(=N\C#N)Nc4cccc(Br)c4)[C@@H](C)C3)c12 [Compound 1],LIMK1 activity,LIMK1,inhibition of the kinase by LIMKi at all concentrations tested
same,latency to develop severe seizures,"C57B^1/6 mice; 10 mg/kg 30 minutes prior to PTZ, C57B1/6 mice",increased the latency to develop severe seizures
same,latency to develop lower grade seizures (score<5),C57B^1/6 mice; [4],Delayed latency to develop lower grade seizures
same,mean seizure severity,C57B^1/6 mice; [4],significantly reduced mean seizure severity
same,mean seizure severity,"C57B^1/6 mice; 10 mg/kg i.p. 30 minutes prior to 50 mg/kg PTZ, vs vehicle, listed as LIMKi",Significantly reduced seizure severity
same,Aβ-induced death of cultured neurons (cell viability),[1],dose-dependent protection
same,Aβ-induced dendritic spine loss,[1],dose-dependent protection
same,cross frequency coupling (CFC),"APP23 mice [2]; APP23 mice, 1 hour after administration, data not shown",re-established
same,amplitude phase in EEG recordings,APP23 mice [2]; [5],normalized
same,modulation index of cross frequency coupling,APP23 mice [2]; [5],normalized
same,amplitude phase in EEG recordings,APP23 mice [2]; [6],corrected 1 hour after LIMKi delivery and no longer different from wt controls
same,modulation index of cross frequency coupling,APP23 mice [2]; [6],corrected 1 hours after LIMKi administration and no longer different from wt controls
same,spike frequency / hypersynchronous discharges in EEG,APP23 mice [2]; APP23 mice,hypersynchronicity significantly decreased
same,spike frequency / hypersynchronous discharges in EEG,"APP23 mice [2]; APP23 mice, listed as LIMKi",significantly reduced spike frequency
same,spike activity in EEG,"APP23 mice [2]; non-transgenic (wt) mice, pre and post injection",No overt spike activity
same,time in target quadrant during MWM probe trials,"APP23 mice [3]; APP23 mice, 10 mg/kg i.p. 3-4 times per week for 4 months, n=8-10",no significant differences to controls
same,learning in Morris water maze,"APP23 mice [3]; APP23 mice, 10 mg/kg i.p. 3-4 times per week from 3 to 7 months of age",improved learning of APP23 mice to vehicle control levels
same,memory performance in MWM,"APP23 mice [3]; APP23 mice, after four months of treatment, tested at 7 months of age",improved memory performance
same,learning in Morris water maze,"APP23 mice [3]; non-transgenic control mice, 10 mg/kg i.p. 3-4 times per week for 4 months, 10 mg/kg",delayed learning
same,learning in Morris water maze,"APP23 mice [3]; non-transgenic control mice, 10 mg/kg i.p. 3-4 times per week for 4 months, listed as LIMKi, 10 mg/kg",moderately delayed learning

# From patent US20220288082A1, “TREATMENT OF DEMENTIA” (Macquarie University, priority 2019, published 2022)
